Measurements as given in US20240226343A1, “NEUROPEPTIDE Y1 RECEPTOR (NPY1R) TARGETED THERAPEUTICS AND USES THEREOF” (RADIONETICS ONCOLOGY, INC., priority 2022, published 2024).

Biological target: T1, hNPY1R (Homo sapiens, UniProt P25929)
T1 construct: SK-N-MC cells endogenously expressing the NPY1R receptor; endogenous in cells; host or cells: SK-N-MC cells (crude membrane fractions)
T1 sequence (P25929 1-384): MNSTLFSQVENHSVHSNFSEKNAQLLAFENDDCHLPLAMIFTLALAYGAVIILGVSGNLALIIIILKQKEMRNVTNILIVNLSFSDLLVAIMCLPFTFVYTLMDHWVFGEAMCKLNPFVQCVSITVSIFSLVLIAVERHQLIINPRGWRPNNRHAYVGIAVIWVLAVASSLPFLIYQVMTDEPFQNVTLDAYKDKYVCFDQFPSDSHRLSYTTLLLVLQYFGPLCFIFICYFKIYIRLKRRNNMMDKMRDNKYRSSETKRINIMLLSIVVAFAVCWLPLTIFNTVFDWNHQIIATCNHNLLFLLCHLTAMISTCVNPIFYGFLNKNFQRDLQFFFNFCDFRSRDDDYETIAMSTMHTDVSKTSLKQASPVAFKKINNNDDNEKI
Experiment: NPY1R binding assay: SK-N-MC membranes, [125I]-Peptide YY (human) competition
Conditions: data obtained after 60 minutes at 37° C.; SK-N-MC membranes; [125I]-Peptide YY 0.05 nM; read-out: hNPY1R binding Ki* †
Experimental: Crude membrane fractions are prepared from SK-N-MC cells endogenously expressing the NPY1R receptor. The cells are grown to 85-100% confluence on standard tissue culture dishes in Eagle's Minimum Essential Medium supplemented with 10% dialyzed FBS. To prepare membranes, cells are scraped and collected in 1× Dulbecco's phosphate buffered saline and then pelleted at 1000 RPM's. The cell pellet is reconstituted in membrane preparation buffer (20 mM HEPES, 6 mM MgCl2 and 1 mM EGTA, protease inhibitor tablets, pH 7.4) and placed in a cell disruption vessel at 1000 PSI for 30 minutes on ice. The pressurized contents are then released and spun down at 1000 RPMs and the supernatant is collected and further centrifuged at 15,000 RPMs to pellet the membranes. The membrane pellet is resuspended in membrane preparation buffer, snap frozen and stored at −80° C. for later use.
[…] Assay contents are then filtered through unifilter GF/C microplates and washed with 9×400 μl of cold wash buffer (25 mM HEPES, 5 mM MgCl2, 1 mM CaCl2), 500 mM NaCl, 0.1% Tween-20, pH 7.4). Assay plates are read using a Top Count NXT and Ki values for compounds are determined using a GraphPad Prism 6 non-linear regression analysis.

Compound | Ki
CCC(=O)NCCNC(=O)/N=C(/N)NCCC[C@@H](NC(=O)C(c1ccccc1)c1cccc(OCCOCCOCCOCCOCCNC(=O)CN2CCN(CC(=O)O)CCN(CC(=O)O)CCN(CC(=O)O)CC2)c1)C(=O)NCc1ccc(O)cc1 (single isomer, unassigned) [Compound 101B] | < 10 nM
CCC(=O)NCCNC(=O)/N=C(/N)NCCC[C@@H](NC(=O)C(c1ccccc1)c1cccc(OCCCCNC(=O)CN2CCN(C(=O)CN3CCN(CC(=O)O)CCN(CC(=O)O)CCN(CC(=O)O)CC3)CC2)c1)C(=O)NCc1ccc(O)cc1 (single isomer, unassigned) [Compound 118A] | < 10 nM
CCC(=O)NCCNC(=O)/N=C(/N)NCCC[C@@H](NC(=O)C(c1ccccc1)c1cccc(OCCCCNC(=O)CCC(=O)N(CC(=O)O)C2CCN(C(=O)CN3CCN(CC(=O)O)CCN(CC(=O)O)CCN(CC(=O)O)CC3)CC2)c1)C(=O)NCc1ccc(O)cc1 (single isomer, unassigned) [Compound 117A] | 10 to 100 nM
CCC(=O)NCCNC(=O)/N=C(/N)NCCC[C@@H](NC(=O)C(c1ccccc1)c1ccc(NC(=O)CCOCCOCCOCCOCCNC(=O)CN2CCN(CC(=O)O)CCN(CC(=O)O)CCN(CC(=O)O)CC2)cc1)C(=O)NCc1ccc(O)cc1 (single isomer, unassigned) [Compound 102B] | 10 to 100 nM

Same assay, conditions: data obtained after 120 minutes at rt; SK-N-MC membranes; [125I]-Peptide YY; read-out: hNPY.R binding Ki* ††

Compound | Ki
CCC(=O)NCCNC(=O)/N=C(/N)NCCC[C@@H](NC(=O)C(c1ccccc1)c1ccc(NCCNC(=O)[C@H](N)CCCNC(=O)CN2CCN(CC(=O)O)CCN(CC(=O)O)CCN(CC(=O)O)CC2)cc1)C(=O)NCc1ccc(O)cc1 (single isomer, unassigned) [Compound 144B] | < 10 nM
CCC(=O)NCCNC(=O)/N=C(/N)NCCC[C@@H](NC(=O)C(c1ccccc1)c1ccc(NCCNC(=O)[C@H](N)CCCNC(=O)CN2CCN(CC(=O)O)CCN(CC(=O)O)CCN(CC(=O)O)CC2)cc1)C(=O)NCc1ccc(O)cc1 (single isomer, unassigned) [Compound 143A] | < 10 nM
CCC(=O)NCCNC(=O)/N=C(/N)NCCC[C@@H](NC(=O)C(c1ccccc1)c1cccc(OCCCCNC(=O)NOCCNC(=O)CN2CCN(CC(=O)O)CCN(CC(=O)O)CCN(CC(=O)O)CC2)c1)C(=O)NCc1c(F)cc(O)cc1F (single isomer, unassigned) [Compound 163A] | < 10 nM
CCC(=O)NCCNC(=O)/N=C(/N)NCCC[C@@H](NC(=O)C(c1ccccc1)c1ccc(NCCCNC(=O)NOCCNC(=O)CN2CCN(CC(=O)O)CCN(CC(=O)O)CCN(CC(=O)O)CC2)cc1)C(=O)NCc1ccc(O)cc1 (single isomer, unassigned) [Compound 160] | 10 to 100 nM
CCC(=O)NCCNC(=O)/N=C(/N)NCCC[C@@H](NC(=O)C(c1ccccc1)c1ccc(NCCCNC(=O)c2ccc(C(=O)NCCCCNC(=O)CN3CCN(CC(=O)O)CCN(CC(=O)O)CCN(CC(=O)O)CC3)cc2)cc1)C(=O)NCc1ccc(O)cc1 (stereo partly drawn) [Compound 157, 2,2′,2″-(10-(2-((4-(4-((3-((4-((4R,Z)-9-amino-4-((4-hydroxybenzyl)carbamoyl)-2,11,16-trioxo-1-phenyl-3,8,10,12,15-pentaazaoctadec-9-en-1-yl)phenyl)amino)propyl)carbamoyl)benzamido)butyl)amino)-2-oxoethyl)-1,4,7,10-tetraazacyclododecane-1,4,7-triyl)triacetic acid] | < 10 nM
CCC(=O)NCCNC(=O)/N=C(/N)NCCC[C@@H](NC(=O)C(c1ccccc1)c1ccc(NCCCNC(=O)[C@H](N)CCCNC(=O)CN2CCC(NC(=O)CN3CCN(CC(=O)O)CCN(CC(=O)O)CCN(CC(=O)O)CC3)CC2)cc1)C(=O)NCc1ccc(O)cc1 (single isomer, unassigned) [Compound 146A] | < 10 nM
CCC(=O)NCCNC(=O)/N=C(/N)NCCC[C@@H](NC(=O)C(c1ccccc1)c1cccc(OCCCCNC(=O)CCCCCNC(=O)CN2CCN(CC(=O)O)CCN(CC(=O)O)CCN(CC(=O)O)CC2)c1)C(=O)NCc1ccc(O)cc1 (single isomer, unassigned) [Compound 140B] | < 10 nM
CCC(=O)NCCNC(=O)/N=C(/N)NCCC[C@@H](NC(=O)C(c1ccccc1)c1ccc(NCCCNC(=O)[C@@H](CCCNC(=O)CN2CCN(CC(=O)O)CCN(CC(=O)O)CCN(CC(=O)O)CC2)NC(=O)CCCc2ccc(I)cc2)cc1)C(=O)NCc1ccc(O)cc1 (single isomer, unassigned) [Compound 153] | < 10 nM
CCC(=O)NCCNC(=O)/N=C(/N)NCCC[C@@H](NC(=O)C(c1ccccc1)c1ccc(NCCCNC(=O)CN(C)C(=O)CN(C)C(=O)CN(C)C(=O)CN2CCN(CC(=O)O)CCN(CC(=O)O)CCN(CC(=O)O)CC2)cc1)C(=O)NCc1ccc(O)cc1 (single isomer, unassigned) [Compound 159] | < 10 nM
CCC(=O)NCCNC(=O)/N=C(/N)NCCC[C@@H](NC(=O)C(c1ccccc1)c1cccc(OCCCCNC(=O)NCCONC(=O)CN2CCN(CC(=O)O)CCN(CC(=O)O)CCN(CC(=O)O)CC2)c1)C(=O)NCc1c(F)cc(O)cc1F (single isomer, unassigned) [Compound 168] | < 10 nM
CCNC(=O)/N=C(/N)NCCC[C@@H](NC(=O)C(c1ccccc1)c1ccc(NCCCNC(=O)[C@@H](CCCNC(=N)N)NC(=O)[C@@H](Cc2ccc(-c3ccccc3)cc2)NC(=O)CN2CCN(CC(=O)O)CCN(CC(=O)O)CCN(CC(=O)O)CC2)cc1)C(=O)NCc1ccc(O)cc1 (single isomer, unassigned) [Compound 152] | < 10 nM
CCC(=O)NCCNC(=O)/N=C(/N)NCCC[C@@H](NC(=O)C(c1ccccc1)c1ccc(NCCCNC(=O)[C@H](N)CCCCNC(=O)CN2CCN(CC(=O)O)CCN(CC(=O)O)CCN(CC(=O)O)CC2)cc1)C(=O)NCc1ccc(O)cc1 (single isomer, unassigned) [Compound 132A] | < 10 nM
CCC(=O)NCCNC(=O)/N=C(/N)NCCC[C@@H](NC(=O)C(c1ccccc1)c1cccc(OCCCCNC(=O)CN2CCN(C(=O)CN3CCN(CC(=O)O)CCN(CC(=O)O)CCN(CC(=O)O)CC3)CC2)c1)C(=O)NCc1ccc(O)cc1 (single isomer, unassigned) [Compound 118A] | < 10 nM
CCC(=O)NCCNC(=O)/N=C(/N)NCCC[C@@H](NC(=O)C(c1ccccc1)c1cccc(OCCCCNC(=O)CCC(=O)N(CC(=O)O)C2CCN(C(=O)CN3CCN(CC(=O)O)CCN(CC(=O)O)CCN(CC(=O)O)CC3)CC2)c1)C(=O)NCc1ccc(O)cc1 (single isomer, unassigned) [Compound 117A] | 10 to 100 nM
CCC(=O)NCCNC(=O)/N=C(/N)NCCC[C@@H](NC(=O)C(c1ccccc1)c1cccc(OCCCCNC(=O)CONC(=O)CCNC(=O)CN2CCN(CC(=O)O)CCN(CC(=O)O)CCN(CC(=O)O)CC2)c1)C(=O)NCc1c(F)cc(O)cc1F (single isomer, unassigned) [Compound 167] | < 10 nM
CCC(=O)NCCNC(=O)/N=C(/N)NCCC[C@@H](NC(=O)C(c1ccccc1)c1ccc(OCCCNc2c(NCCNC(=O)CN3CCN(CC(=O)O)CCN(CC(=O)O)CCN(CC(=O)O)CC3)c(=O)c2=O)cc1)C(=O)NCc1ccc(O)cc1 (single isomer, unassigned) [Compound 136B] | < 10 nM
CCC(=O)NCCNC(=O)/N=C(/N)NCCC[C@@H](NC(=O)C(c1ccccc1)c1cccc(OCCCCNC(=O)[C@@H](CO)NC(=O)CCNC(=O)CN2CCN(CC(=O)O)CCN(CC(=O)O)CCN(CC(=O)O)CC2)c1)C(=O)NCc1c(F)cc(O)cc1F (single isomer, unassigned) [Compound 165A] | < 10 nM
CCC(=O)NCCNC(=O)/N=C(/N)NCCC[C@@H](NC(=O)C(c1ccccc1)c1ccc(NCC(=O)N(C)CCCN(C)CCCN(C)C(=O)CN2CCN(CC(=O)O)CCN(CC(=O)O)CCN(CC(=O)O)CC2)cc1)C(=O)NCc1ccc(O)cc1 (single isomer, unassigned) [Compound 139B] | < 10 nM
CCC(=O)NCCNC(=O)/N=C(/N)NCCC[C@@H](NC(=O)C(c1ccccc1)c1cccc(OCCCCNc2c(NCCNC(=O)[C@@H](CN)NC(=O)CN3CCN(CC(=O)O)CCN(CC(=O)O)CCN(CC(=O)O)CC3)c(=O)c2=O)c1)C(=O)NCc1ccc(O)cc1 (single isomer, unassigned) [Compound 115B] | < 10 nM
CCC(=O)NCCNC(=O)/N=C(/N)NCCC[C@@H](NC(=O)C(c1ccccc1)c1ccc(NCCCNC(=O)CN2CCC(NC(=O)CN3CCN(CC(=O)O)CCN(CC(=O)O)CCN(CC(=O)O)CC3)CC2)cc1)C(=O)NCc1ccc(O)cc1 (single isomer, unassigned) [Compound 133A] | < 10 nM
CCC(=O)NCCNC(=O)/N=C(/N)NCCC[C@@H](NC(=O)C(c1ccccc1)c1ccc(NCCCNc2c(NCCNC(=O)[C@@H](CN)NC(=O)CN3CCN(CC(=O)O)CCN(CC(=O)O)CCN(CC(=O)O)CC3)c(=O)c2=O)cc1)C(=O)NCc1ccc(O)cc1 (single isomer, unassigned) [Compound 137A] | < 10 nM
CCC(=O)NCCNC(=O)/N=C(/N)NCCC[C@@H](NC(=O)C(c1ccccc1)c1cccc(OCCCCNC(=O)C[C@H]2NC(=O)[C@@H](CCCNC(=O)CN3CCN(CC(=O)O)CCN(CC(=O)O)CCN(CC(=O)O)CC3)NC2=O)c1)C(=O)NCc1c(F)cc(O)cc1F (single isomer, unassigned) [Compound 164A] | < 10 nM
CCC(=O)NCCNC(=O)/N=C(/N)NCCC[C@@H](NC(=O)C(c1ccccc1)c1cccc(OCCCCNC(=O)[C@H](N)CCCCNC(=O)c2ccc(CNC(=O)CN3CCN(CC(=O)O)CCN(CC(=O)O)CCN(CC(=O)O)CC3)cc2)c1)C(=O)NCc1ccc(O)cc1 (single isomer, unassigned) [Compound 142A] | < 10 nM
